Target: T1, human CB2R (Homo sapiens, UniProt P34972)
T1 construct: host or cells: CHO cells
Assay: CB2R mediated modulation of cAMP synthesis
Assay type: cell-based
Conditions: for agonistic activity: found through the use of the above described assays
Procedure, shortened: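 CHO cells expressing human CB2R were treated with compound for 30 min at 37 °C in buffer containing 1 mM IBMX, 0.25% BSA and 10 uM forskolin. cAMP was measured after lysis. EC50 was taken as 50% inhibition of forskolin-stimulated cAMP, with 100% defined by 1 uM CP55940, using a four-parameter logistic fit.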

T1 sequence (P34972 whole entry): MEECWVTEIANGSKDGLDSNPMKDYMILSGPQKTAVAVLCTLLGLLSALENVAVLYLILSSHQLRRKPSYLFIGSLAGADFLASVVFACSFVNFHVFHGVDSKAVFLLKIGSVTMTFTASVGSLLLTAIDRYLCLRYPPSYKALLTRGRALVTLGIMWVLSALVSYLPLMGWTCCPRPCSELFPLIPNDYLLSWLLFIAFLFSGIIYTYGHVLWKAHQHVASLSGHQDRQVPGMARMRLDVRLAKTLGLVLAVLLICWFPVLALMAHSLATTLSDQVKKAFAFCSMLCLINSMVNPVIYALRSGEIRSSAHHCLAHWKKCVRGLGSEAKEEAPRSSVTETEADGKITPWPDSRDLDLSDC

Compound | agonistic activity | EC50
CC(C)(C)S(=O)(=O)C(C)(C)C(=O)Nc1cc(C(F)(F)F)ccn1 [2-Methyl-2-(2-methyl-propane-2-sulfonyl)-N-(4-trifluoromethyl-pyridin-2-yl)-propionamide] | agonistic activity | –
CC(C)(C)c1cc(NC(=O)C(C)(C)S(=O)(=O)CC2CCOCC2)on1 [N-(3-tert-Butyl-isoxazol-5-yl)-2-methyl-2-(tetrahydro-pyran-4-ylmethanesulfonyl)-propionamide] | agonistic activity | 4 nM
CCCS(=O)(=O)C(C)(C)C(=O)Nc1cc(-c2cccs2)nn1C [2-Methyl-N-(2-methyl-5-thiophen-2-yl-2H-pyrazol-3-yl)-2-(propane-1-sulfonyl)-propionamide] | agonistic activity | –
CC(C)(C)c1csc(NC(=O)C(C)(C)S(=O)(=O)Cc2ccc(Cl)cc2)n1 [N-(4-tert-Butyl-thiazol-2-yl)-2-(4-chloro-phenylmethanesulfonyl)-2-methyl-propionamide] | agonistic activity | –
